Experimental data: the CheMixHub ionic liquid set
± gives the uncertainty stated by the source.

Assay: xn = mol fraction of the nth substance listed

Question: For CCO + C[N+](C)(C)CCC[n+]1ccccc1.N#C[N-]C#N.N#C[N-]C#N, which viscosity (293.15 K, 100 kPa, x2 = 0) is on record?
Answer: 1.19 ± 0.12 mPa·s

Question: And the viscosity (303.15 K, 100 kPa, x2 = 0)?
Answer: 0.991 ± 0.099 mPa·s

Question: What about the viscosity (313.15 K, 100 kPa, x2 = 0) of the same compound?
Answer: 0.828 ± 0.083 mPa·s

Question: What about the viscosity (323.15 K, 100 kPa, x2 = 0) of the same compound?
Answer: 0.705 ± 0.071 mPa·s

Question: What about the viscosity (333.15 K, 100 kPa, x2 = 0) of the same compound?
Answer: 0.593 ± 0.059 mPa·s

Question: What does the source list for C[N+](C)(CCO)CCOCCO.[Cl-] + NC(N)=O?
Answer: viscosity (283.15 K, 100 kPa, x1 = 0.5): 19700 ± 2600 mPa·s; viscosity (288.15 K, 100 kPa, x1 = 0.5): 10900 ± 1300 mPa·s; viscosity (293.15 K, 100 kPa, x1 = 0.5): 5978 ± 650 mPa·s; viscosity (298.15 K, 100 kPa, x1 = 0.5): 3500 ± 340 mPa·s; viscosity (303.15 K, 100 kPa, x1 = 0.5): 2189 ± 190 mPa·s; viscosity (308.15 K, 100 kPa, x1 = 0.5): 1389 ± 110 mPa·s; viscosity (313.15 K, 100 kPa, x1 = 0.5): 903 ± 60 mPa·s; viscosity (318.15 K, 100 kPa, x1 = 0.5): 616 ± 36 mPa·s; viscosity (323.15 K, 100 kPa, x1 = 0.5): 424 ± 22 mPa·s; viscosity (328.15 K, 100 kPa, x1 = 0.5): 305 ± 14 mPa·s; viscosity (333.15 K, 100 kPa, x1 = 0.5): 221 ± 8 mPa·s; viscosity (338.15 K, 100 kPa, x1 = 0.5): 166 ± 5 mPa·s; viscosity (343.15 K, 100 kPa, x1 = 0.5): 126 ± 4 mPa·s; viscosity (348.15 K, 100 kPa, x1 = 0.5): 97.9 ± 2.3 mPa·s; viscosity (353.15 K, 100 kPa, x1 = 0.5): 77.4 ± 1.6 mPa·s

Question: Which electrical conductivity (298.2 K, 101.3 kPa, x2 = 0, x1 = 0.05064) does the source give for CCO + CCCCCCCCCCCCCCCC[N+](C)(C)C.[Br-] + O here?
Answer: 0.00019 ± 0.0002 S/m

Question: With CCO + CCCCCCCC(=O)[O-].c1c[nH+]c[nH]1 as the compound, how does the viscosity (293.15 K, 101.3 kPa, x1 = 1) read?
Answer: 1.21 ± 0.04 mPa·s

Question: And the viscosity (303.15 K, 101.3 kPa, x1 = 1)?
Answer: 1 ± 0.032 mPa·s

Question: For CCC=C[n+]1ccn(C)c1C.O=[N+]([O-])c1cn[n-]c1 + COCCOCCOCCOCCOC, which viscosity (278.15 K, 100 kPa, x1 = 0.601) is on record?
Answer: 267 ± 12 mPa·s

Question: And the viscosity (278.15 K, 100 kPa, x1 = 0.952)?
Answer: 4300 ± 400 mPa·s

Question: And the viscosity (283.15 K, 100 kPa, x1 = 0.9)?
Answer: 1510 ± 110 mPa·s

Question: What about the viscosity (288.15 K, 100 kPa, x1 = 0.9) of the same compound?
Answer: 864 ± 54 mPa·s

Question: What about the viscosity (288.15 K, 100 kPa, x1 = 0.952) of the same compound?
Answer: 1210 ± 84 mPa·s

Question: And the viscosity (293.15 K, 100 kPa, x1 = 0.601)?
Answer: 87 ± 2 mPa·s

Question: And the viscosity (298.15 K, 100 kPa, x1 = 0.701)?
Answer: 121 ± 3 mPa·s

Question: What about the viscosity (298.15 K, 100 kPa, x1 = 0.952) of the same compound?
Answer: 439 ± 21 mPa·s

Question: And the viscosity (303.15 K, 100 kPa, x1 = 0.801)?
Answer: 138 ± 4 mPa·s

Question: What about the viscosity (313.15 K, 100 kPa, x1 = 0.9) of the same compound?
Answer: 117 ± 3 mPa·s

Question: And the viscosity (323.15 K, 100 kPa, x1 = 0.952)?
Answer: 81 ± 2 mPa·s
